In brackets after ≈: the same amount, converted by molar mass. Where two headings read alike, the source gives them in different places.
Legend:
Format in all cases: physicochemical
[1] = Solid stability of crystal forms (80° C., light exposure, 25° C./60% RH, 40° C./75% RH); purity by liquid chromatography and XRPD of the solids
Protocol: A certain amount of API and malate crystal form VII-A were weighed and added into a liquid phase vial, and a total of 9 parallels were prepared. The 9 parallels were placed separately in 80° C. (open); 25° C., 60% RH (open); 40° C., 75% RH (open); and light stability box closed). The stabilities under conditions of: 80° C. for one day, light exposure for 10 days, as well as 25° C., 60% RH and 40° C., 75% RH for one and two weeks were tested, and the XRPD of the solids were measured.
A certain amount of crystal form B was weighed and added into a liquid phase vial, and a total of 9 parallels were prepared. 9 parallels were placed separately in 80° C.; 25° C., 60% RH, 40° C., 75% RH; and light stability boxe.

[2] = Solubility at 37° C. in buffer solutions with different pH (about 10 mg in 1 ml, 2 h and 24 h); filtrate concentration and pH, XRPD of remaining solid; settings: for solubility at 2 h / solubility at 24 h: read-out: Solubility at 37° C.
Protocol: Approximately 10 mg of malate crystal form VII-A and free base Form A were weighed separately, and 1 ml of buffer solutions with different pH were added to make the solution supersaturated, and the mixtures were stirred at 37° C. for 2 h and 24 hours. The samples were filtered, and the filtrates were measured to determine the concentration and pH value, and the remaining solid was subjected to XRPD determination. The specific results were as follows: […]

[3] = Dynamic moisture adsorption (DVS), hygroscopicity
Protocol: DSV pattern determination method: Dynamic moisture adsorption was performed using Intrinsic DVS. In step mode, the sample is subjected to loop testing at a relative humidity of 0-90%. The sample is analyzed at 10% RH. The dm/dt is set to 0.002 to achieve equilibrium between the sample and the room environment.
Approximately 250 mg of API was weighed and added into a 4 ml glass vial, and 2.5 ml of ethyl acetate was added. The mixture was stirred overnight under magnetic stirring at 50° C., cooled to room temperature, and then filtered, and the obtained solid was dried in vacuum overnight in a 50° C. oven. The resulting solid was free base crystal form Form B. The free base crystal form Form B was subjected to various characterization.

[4] = Competitive pulping of API (free base Form A) and Form B in saturated DCM or water solution at 50° C., XRPD
Protocol: A saturated solution of API (free base Form A) in DCM and water was prepared. Approximately 10 mg of API (free base Form A) and free base crystal form Form B was weighed respectively and added into a 4 ml glass bottle, and 1 mL of the saturated solution was added. […] The resulting solid was subjected to XRPD testing.

Q: Which results are given for `CCc1nc2c(N)ncc(-c3ccc(N4CCC(N5CCN(CC)CC5)CC4)c(OC)c3)c2nc1NC1CCOCC1` [Form B, 3-ethyl-8-(4-(4-(4-ethylpiperazin-1-yl)piperidin-1-yl)-3-methoxyphenyl)-N2-(tetrahydro-2H-pyran-4-yl) pyridino [3,4-b]pyrazine-2,5-diamine]?
A: Crystal form ([1]; 25° C., 60% RH, 1 week): Unchanged; Degradation ([1]; 25° C., 60% RH, 1 week): 0.00%; Purity ([1]; 25° C., 60% RH, 1 week): 97.69%; Crystal form ([1]; 25° C., 60% RH, 2 weeks): Unchanged; Degradation ([1]; 25° C., 60% RH, 2 weeks): 0.00%; Purity ([1]; 25° C., 60% RH, 2 weeks): 97.67%; Crystal form ([1]; 40° C., 75% RH, 1 week): Unchanged; Degradation ([1]; 40° C., 75% RH, 1 week): 0.00%; Purity ([1]; 40° C., 75% RH, 1 week): 97.70%; Crystal form ([1]; 40° C., 75% RH, 2 weeks): Unchanged; Degradation ([1]; 40° C., 75% RH, 2 weeks): 0.01%; Purity ([1]; 40° C., 75% RH, 2 weeks): 97.66%; physical and chemical stability ([1]; 80° C. 1 day, light 10 days, 25° C./60% RH and 40° C./75% RH 1 and 2 weeks): good physical and chemical stability; Crystal form ([1]; 80° C., 1 day): Unchanged; Degradation ([1]; 80° C., 1 day): 0.17%; Purity ([1]; 80° C., 1 day): 97.50%; Crystal form ([1]; Light control, 10 days): Unchanged; Degradation ([1]; Light control, 10 days): 0.00%; Purity ([1]; Light control, 10 days): 97.67%; Crystal form ([1]; Light exposure, 10 days): Unchanged; Degradation ([1]; Light exposure, 10 days): 0.04%; Purity ([1]; Light exposure, 10 days): 97.63%; Purity ([1]; initial): 97.67%; solubility compared to API ([2]; 37° C., pH 6.8, pH 7.4, FaSSIF and water): improved compared to API; solubility at 2 h ([2]; FaSSIF, 37 °C, fassif, thermodynamic from solid, medium FaSSIF, 2 h): 1190 µg/mL (≈ 2070 µM); solubility at 24 h ([2]; FaSSIF, 37 °C, fassif, thermodynamic from solid, medium FaSSIF, 24 h): 1400 µg/mL (≈ 2440 µM); solubility at 2 h ([2]; FeSSIF, 37 °C, fessif, thermodynamic from solid, medium FeSSIF, 2 h): > 10000 µg/mL; solubility at 24 h ([2]; FeSSIF, 37 °C, fessif, thermodynamic from solid, medium FeSSIF, 24 h): > 10000 µg/mL; solubility at 2 h ([2]; SGF, 37 °C, simulated gastric fluid, thermodynamic from solid, medium SGF, 2 h): > 10000 µg/mL; solubility at 24 h ([2]; SGF, 37 °C, simulated gastric fluid, thermodynamic from solid, medium SGF, 24 h): > 10000 µg/mL; solubility at 2 h ([2]; buffer solution pH 6.8, 37 °C, pH 6.8, aqueous buffer, thermodynamic from solid, medium pH 6.8, 2 h): 310 µg/mL (≈ 539 µM); solubility at 24 h ([2]; buffer solution pH 6.8, 37 °C, pH 6.8, aqueous buffer, thermodynamic from solid, medium pH 6.8, 24 h): 250 µg/mL (≈ 436 µM); solubility ([2]; buffer solutions: pH 1.2, pH 3.0, pH 4.5, FeSSIF, SGF, 37 °C, aqueous buffer, thermodynamic from solid, 37° C., pH 1.2, pH 3.0, pH 4.5, FeSSIF, and SGF buffer): > 10000 µg/mL; Crystal form ([2]; medium FaSSIF, XRPD of remaining solid): Form B; pH (24 h) ([2]; medium FaSSIF, filtrate, 37° C.): 6.755; pH (24 h) ([2]; medium FeSSIF, filtrate, 37° C.): 5.724; Solubility at 37° C. ([2]; medium H2O, 24 h): 0.0179 mg/mL (≈ 31.1 µM); Crystal form ([2]; medium H2O, XRPD of remaining solid): Form B; pH (24 h) ([2]; medium H2O, filtrate, 37° C.): 7.197; pH (24 h) ([2]; medium SGF, filtrate, 37° C.): 1.910; Solubility at 37° C. ([2]; medium pH 1.2, 2 h): >10 mg/mL; Solubility at 37° C. ([2]; medium pH 1.2, 24 h): >10 mg/mL; pH (24 h) ([2]; medium pH 1.2, filtrate, 37° C.): 1.925; Solubility at 37° C. ([2]; medium pH 3.0, 2 h): >10 mg/mL; Solubility at 37° C. ([2]; medium pH 3.0, 24 h): >10 mg/mL; pH (24 h) ([2]; medium pH 3.0, filtrate, 37° C.): 4.892; Solubility at 37° C. ([2]; medium pH 4.5, 2 h): >10 mg/mL; Solubility at 37° C. ([2]; medium pH 4.5, 24 h): >10 mg/mL; pH (24 h) ([2]; medium pH 4.5, filtrate, 37° C.): 6.062; Crystal form ([2]; medium pH 6.8, XRPD of remaining solid): Form B; pH (24 h) ([2]; medium pH 6.8, filtrate, 37° C.): 6.813; Solubility at 37° C. ([2]; medium pH 7.4, 2 h): 0.0472 mg/mL (≈ 82.1 µM); Solubility at 37° C. ([2]; medium pH 7.4, 24 h): 0.0399 mg/mL (≈ 69.4 µM); Crystal form ([2]; medium pH 7.4, XRPD of remaining solid): Form B; pH (24 h) ([2]; medium pH 7.4, filtrate, 37° C.): 7.311; crystal form in the buffers ([2]; remaining solids, XRPD): remained unchanged; solubility at 2 h ([2]; water, 37 °C, water, thermodynamic from solid, medium H2O, 2 h): 39.5 µg/mL (≈ 68.7 µM); crystal form before and after DVS testing [3]: did not change; solid crystal form obtained by competitive pulping ([4]; API and Form B together in DCM, 50° C., 3 days, XRPD): tended to approach Form L; appearance after competitive pulping ([4]; API and Form B together in DCM, after 5 days of beating): became oily; crystal form obtained by competitive pulping ([4]; API and Form B together in water, 50° C., 3 days, XRPD): a mixture of Form B and API; XRPD results ([4]; competitive pulping of API and Form B, DCM, 50° C., 3 days): Form K

Source: patent US20250101017A1, “SALT CRYSTAL FORM AND FREE BASE CRYSTAL FORM OF KINASE INHIBITOR” (CYTOSINLAB THERAPEUTICS CO., LTD., priority 2022, published 2025)
